Each structure is given as a SMILES string.

From patent US6911469B2, “Sulfonamide compounds and pharmaceutical use thereof” (Fujisawa Pharmaceutical Co., Ltd., priority 1997, dated 2005) come the findings set out here.

By melting point is commonly meant the temperature of the solid-liquid transition. In the case of `CCCCS(=O)(=O)NC(=O)c1ccc2c(c1)CN(Cc1ccc(Cl)cc1Cl)C(C)=N2.Cl`, the melting point was 258 °C (dec.). As for `CCCCCS(=O)(=O)NC(=O)c1ccc2c(c1)N(Cc1ccc(Cl)cc1Cl)C(C)=NC2.Cl`, the figure is 184 to 186 °C; as for `CCCCCS(=O)(=O)NC(=O)c1ccc2sc(C)c(Cc3ccc(Cl)c(Cl)c3)c2c1` [Example 1, 3-(3,4-dichlorobenzyl)-2-methyl-5-(n-pentanesulfonyl-carbamoyl)benzo[b]thiophene], 159 to 160 °C. As for `CCCCCS(=O)(=O)NC(=O)c1ccc2sc(C)c(Cc3cccc(Cl)c3Cl)c2c1` [Example 2, 3-(2,3-dichlorobenzyl)-2-methyl-5-(n-pentanesulfonylcarbamoyl)benzo[b]thiophene], the figure is 196 to 197 °C; as for `CCCCCS(=O)(=O)NC(=O)c1ccc2sc(C)c(Cc3cc(Cl)ccc3Cl)c2c1` [Example 3, 3-(2,5-dichlorobenzyl)-2-methyl-5-(n-pentanesulfonylcarbamoyl)benzo[b]thiophene], 147 to 148 °C. As for `CCCCCS(=O)(=O)NC(=O)c1ccc2nc(C)n(Cc3ccc(Cl)cc3Cl)c2n1` [Example 8-1, 3-(2,4-dichlorobenzyl)-2-methyl-5-(n-pentanesulfonylcarbamoyl)-3H-imidazo[4,5-b]pyridine], the figure is 174 to 175 °C. As for `CCCCS(=O)(=O)NC(=O)c1ccc2nc(C)n(Cc3ccc(Cl)cc3Cl)c2n1` [Example 8-2, 5-(n-butanesulfonylcarbamoyl)-3-(2,4-dichlorobenzyl)-2-methyl-3H-imidazo[4,5-b]pyridine], the melting point lay within 153 to 154 °C. With `Cc1nc2ccc(C(=O)NS(=O)(=O)c3ccccc3)nc2n1Cc1ccc(Cl)cc1Cl` [Example 8-3, 5-benzenesulfonylcarbamoyl-3-(2,4-dichlorobenzyl)-2-methyl-3H-imidazo[4,5-b]pyridine] the figure was 193 to 194 °C.

Compound `CCCCCS(=O)(=O)NC(=O)c1ccc2nc(C)n(Cc3ccc(-c4ccccc4)cc3Cl)c2n1` [Example 9, 3-(2-chloro-4-phenylbenzyl)-2-methyl-5-(n-pentanesulfonylcarbamoyl)-3H-imidazo[4,5-b]pyridine] gave a melting point of 155 to 156 °C.

The compound `CCCCCS(=O)(=O)NC(=O)c1ccc2nc(C)n(Cc3ccc4ccccc4c3Br)c2n1` [Example 10, 3-(1-bromo-2-naphthyl)methyl-2-methyl-5-(n-pentanesulfonylcarbamoyl)-3H-imidazo[4,5-b]pyridine] yielded a melting point of 200 to 201 °C.

Consider `CCCCCS(=O)(=O)NC(=O)c1ccc2nc(C)n(Cc3ccc(-c4ccccc4)cc3)c2n1` [Example 11, 2-methyl-5-(n-pentanesulfonyl-carbamoyl)-3-(4-phenylbenzyl)-3H-imidazo[4,5-b]pyridine], for which the melting point was 170 to 171 °C. As for `CCCCCS(=O)(=O)NC(=O)c1ccc2nc(C)n(Cc3ccc(Br)cc3Cl)c2n1` [Example 12-1, 3-(4-bromo-2-chlorobenzyl)-2-methyl-5-(n-pentanesulfonylcarbamoyl)-3H-imidazo[4,5-b]pyridine], the figure is 183 to 184 °C; as for `CCCCS(=O)(=O)NC(=O)c1ccc2nc(C)n(Cc3ccc(Br)cc3Cl)c2n1` [Example 12-2, 3-(4-bromo-2-chlorobenzyl)-5-(n-butanesulfonylcarbamoyl)-2-methyl-3H-imidazo[4,5-b]pyridine], 165 to 166 °C; as for `Cc1nc2ccc(C(=O)NS(=O)(=O)c3ccccc3)nc2n1Cc1ccc(Br)cc1Cl` [Example 12-3, 5-(benzenesulfonylcarbamoyl)-3-(4-bromo-2-chlorobenzyl)-2-methyl-3H-imidazo[4,5-b]pyridine], 193 to 194 °C. `CCCCCS(=O)(=O)NC(=O)c1ccc2nc(C)n(Cc3ccc(Cl)cc3Br)c2n1` [Example 13-1, 3-(2-bromo-4-chlorobenzyl)-2-methyl-5-(n-pentanesulfonylcarbamoyl)-3H-imidazo[4,5-b]pyridine] came in with a melting point of 167 to 168 °C.

In turn, `Cc1nc2ccc(C(=O)NS(=O)(=O)c3ccccc3)nc2n1Cc1ccc(Cl)cc1Br` [Example 13-2, 5-(benzenesulfonylcarbamoyl)-3-(2-bromo-4-chlorobenzyl)-2-methyl-3H-imidazo[4,5-b]pyridine] showed a melting point of 189 to 190 °C. With `CCCCS(=O)(=O)NC(=O)c1ccc2nc(C)n(Cc3ccc(Cl)cc3Br)c2n1` [Example 13-3, 3-(2-bromo-4-chlorobenzyl)-5-(n-butanesulfonylcarbamoyl)-2-methyl-3H-imidazo[4,5-b]pyridine] the figure was 145 to 146 °C; with `CCCCCS(=O)(=O)NC(=O)c1cc(C)c2nc(CC)n(Cc3ccc(Cl)cc3Cl)c2n1` [Example 15, 3-(2,4-dichlorobenzyl)-2-ethyl-7-methyl-5-(n-pentanesulfonylcarbamoyl)-3H-imidazo[4,5-b]pyridine], 178 to 180 °C. As for `CCCCCS(=O)(=O)NC(=O)c1cc(C)c2nc(CC)n(Cc3ccc(-c4ccccc4)cc3)c2n1` [Example 16, 2-ethyl-7-methyl-5-(n-pentanesulfonylcarbamoyl)-3-(4-phenylbenzyl)-3H-imidazo[4,5-b]pyridine], the figure is 210 to 211 °C; as for `CCCCCS(=O)(=O)NC(=O)c1cnc2nc(C)n(Cc3ccc(Cl)cc3Cl)c2c1` [Example 25, 1-(2,4-dichlorobenzyl)-2-methyl-6-(n-pentanesulfonylcarbamoyl)-1H-imidazo[4,5-b]pyridine], 103 to 106 °C. As for `CCCCCS(=O)(=O)NC(=O)c1ccc2[nH]c(C)c(Cc3ccc(Cl)cc3Cl)c2n1` [Example 26-1, 3-(2,4-dichlorobenzyl)-2-methyl-5-(n-pentanesulfonylcarbamoyl)pyrrolo[3,2-b]pyridine], the figure is 147 to 148 °C.

Turning to `Cc1[nH]c2ccc(C(=O)NS(=O)(=O)c3ccccc3)nc2c1Cc1ccc(Cl)cc1Cl` [Example 26-2, 3-(2,4-dichlorobenzyl)-2-methyl-5-(benzenesulfonylcarbamoyl)pyrrolo[3,2-b]pyridine], the melting point was over 250 °C. With `CCCCCS(=O)(=O)NC(=O)c1ccc2nc(C)n(Cc3ccc(Cl)cc3OC)c2n1` [Example 27, 3-(4-chloro-2-methoxybenzyl)-2-methyl-5-(n-pentanesulfonylcarbamoyl)-3H-imidazo[4,5-b]pyridine] the figure was 168 to 170 °C; with `CCCCCS(=O)(=O)NC(=O)c1ccc2nc(C)n(Cc3ccc(Cl)cc3C)c2n1` [Example 28-1, 3-(4-chloro-2-methylbenzyl)-2-methyl-5-(n-pentanesulfonylcarbamoyl)-3H-imidazo[4,5-b]pyridine], 155 to 157 °C. As for `Cc1cc(Cl)ccc1Cn1c(C)nc2ccc(C(=O)NS(=O)(=O)c3ccccc3)nc21` [Example 28-2, 5-benzenesulfonylcarbamoyl-3-(4-chloro-2-methylbenzyl)-2-methyl-3H-imidazo[4,5-b]pyridine], the figure is 235 to 237 °C; as for `Cc1nc2ccc(C(=O)NS(=O)(=O)c3ccccc3)nc2n1Cc1ccc(-c2ccccc2)cc1Cl` [Example 29-1, 5-benzenesulfonylcarbamoyl-3-(2-chloro-4-phenylbenzyl)-2-methyl-3H-imidazo[4,5-b]pyridine], 204 to 214 °C.

In turn, `CCCCS(=O)(=O)NC(=O)c1ccc2nc(C)n(Cc3ccc(-c4ccccc4)cc3Cl)c2n1` [Example 29-2, 5-(n-butanesulfonylcarbamoyl)-3-(2-chloro-4-phenylbenzyl)-2-methyl-3H-imidazo[4,5-b]pyridine] registered a melting point of 199 to 200 °C. With `Cc1oc2ccc(C(=O)NS(=O)(=O)c3ccccc3)cc2c1Cc1ccc(Cl)cc1Cl` [Example 30-2, 5-(benzenesulfonylcarbamoyl)-3-(2,4-dichlorobenzyl)-2-methylbenzo[b]furan] the figure was 208.5 to 209.5 °C; with `CCCCCS(=O)(=O)NC(=O)c1cc(C)cc2c(C)c(Cc3ccc(Cl)cc3Cl)oc12` [Example 31-1, 2-(2,4-dichlorobenzyl)-3,5-dimethyl-7-(1-n-pentanesulfonylcarbamoyl)benzo[b]furan], 164 to 165.5 °C. As for `Cc1cc(C(=O)NS(=O)(=O)c2ccccc2)c2oc(Cc3ccc(Cl)cc3Cl)c(C)c2c1` [Example 31-2, 7-(benzenesulfonylcarbamoyl)-2-(2,4-dichlorobenzyl)-3,5-dimethylbenzo[b]furan], the figure is 214 to 215 °C. For the compound `CCCCCS(=O)(=O)NC(=O)c1ccc2sc(C)c(Cc3ccc(Cl)cc3Cl)c2c1` [Example 37, 3-(2,4-dichlorobenzyl)-2-methyl-5-(1-n-pentanesulfonylcarbamoyl)benzo[b]thiophene], the melting point lay within 158.5 to 159.3 °C. For the compound `CCCCCS(=O)(=O)NC(=O)c1cccc2c(CC)c(Cc3ccc(Cl)cc3Cl)sc12` [Example 38-1, 2-(2,4-dichlorobenzyl)-3-ethyl-7-(1-n-pentanesulfonylcarbamoyl)benzo[b]thiophene], the melting point was in the range of 176 to 178 °C.

Take `CCc1c(Cc2ccc(Cl)cc2Cl)sc2c(C(=O)NS(=O)(=O)c3ccccc3)cccc12` [Example 38-2, 7-(benzenesulfonylcarbamoyl)-2-(2,4-dichlorobenzyl)-3-ethylbenzo[b]thiophene]: the melting point lay within 181 to 183 °C. With `CCCCS(=O)(=O)NC(=O)c1ccc2c(c1)n(Cc1ccc(Cl)cc1Cl)c(=O)n2C` [Example 39, 6-(1-n-butanesulfonylcarbamoyl)-1-(2,4-dichlorobenzyl)-3-methyl-2-benzimidazolone] the figure was 358 to 360 °C; with `CCCCS(=O)(=O)NC(=O)c1ccc2nnn(Cc3ccc(Cl)cc3Cl)c2c1` [Example 40, 6-(1-n-butanesulfonyl-carbamoyl)-1-(2,4-dichlorobenzyl)benzotriazole], 158 to 160 °C.

As for `CCCCS(=O)(=O)NC(=O)c1ccc2c(=O)n(CC)c(=O)n(Cc3ccc(Cl)cc3Cl)c2c1` [Example 42, 7-(1-n-butanesulfonyl-carbamoyl)-1-(2,4-dichlorobenzyl)-3-ethyl-2,4(1H,3H)-quinazolinedione], the melting point lay in the range of 212 to 214 °C.
